The assay concerns the target T1, GCase (GBA) in human fibroblast cell line GM10915 harboring the L444P GBA mutation (Homo sapiens, UniProt P04062, L483P).
T1 construct: Human fibroblast cell line GM10915 harboring the L444P GBA mutation; host or cells: GM10915 human fibroblasts
T1 sequence (P04062 40-536 L483P): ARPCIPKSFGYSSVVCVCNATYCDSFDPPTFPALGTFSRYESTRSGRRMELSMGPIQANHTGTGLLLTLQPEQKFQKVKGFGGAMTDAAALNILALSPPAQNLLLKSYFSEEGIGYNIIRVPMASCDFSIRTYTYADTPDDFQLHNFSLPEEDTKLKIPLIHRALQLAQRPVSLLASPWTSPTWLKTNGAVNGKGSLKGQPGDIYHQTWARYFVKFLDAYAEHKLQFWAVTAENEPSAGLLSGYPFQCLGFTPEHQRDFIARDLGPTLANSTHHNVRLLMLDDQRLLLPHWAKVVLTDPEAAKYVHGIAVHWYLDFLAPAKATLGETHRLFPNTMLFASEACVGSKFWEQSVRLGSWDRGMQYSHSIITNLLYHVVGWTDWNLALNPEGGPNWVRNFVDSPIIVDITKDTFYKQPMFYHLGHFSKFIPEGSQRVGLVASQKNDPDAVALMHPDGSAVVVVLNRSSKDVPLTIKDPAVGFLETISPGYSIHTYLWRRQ
Kind of assay: GCase activity assay (4-MUG substrate, normalised to crystal violet staining) in L444P GBA fibroblasts. It is filed as cell-based. As to conditions: 5 days exposure; for GBA EC1.5: concentration giving 150% GCase activity (1.5-fold induction), 8-point dose range; for Emax / GBA Emax: maximum percent GCase activity relative to untreated cells in the dose range tested. The method, boiled down:
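Patient fibroblasts GM10915 (L444P GBA) exposed to compounds for five days over an 8-point range, with fresh dosing every 2–3 days. Intact-cell GCase measured with 2.5 mM 4-MUG at pH 4.0 for 23 h at 37 °C (ex/em 365/445 nm), normalised to crystal violet, as % of PBS basal; Emax is the maximum reached.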

This note sets out measurements from US20240390383A1, “DIOXAZINES AND THEIR USE IN TREATMENT OF GBA-RELATED DISEASES” (ZEVRA DENMARK A/S, priority 2021, published 2024).

Several values for one entry are separate records, joined by “and”; a condition that tells them apart may be missing. Identical values can stand only once.

As usually defined, the Emax is the size of the effect at its maximum, as opposed to the concentration needed.

For the molecule `c1cc(C2CCCNC2)ccc1C1=NOCC(CN2CCCCC2)O1` (centres unmarked) [compound 856], the “GBA EC1.5” value came to 2 µM and the Emax came to 134%.
As to `C1CCN(C[C@@H]2CON=C([C@]34CCC[C@H]3NCC4)O2)CC1` (single isomer, unassigned) [compound 590], the “GBA EC1.5” value is 4 µM and 3 µM; the “GBA Emax” value is 211% and 273%.
For `COCCC1(C2=NOCC(CN3CCCCC3)O2)CCNC1` (racemic) [compound 685, rac-3-(3-(2-methoxyethyl)pyrrolidin-3-yl)-5-(piperidin-1-ylmethyl)-5,6-dihydro-1,4,2-dioxazine], the “GBA EC1.5” value amounted to 12 µM and the Emax worked out at 270%.
Regarding `C1CCN(CC2CON=C([C@]34CCC[C@H]3NCC4)O2)CC1` (relative stereo) [compound 584, rac-rel-trans-3-((3aS,6aR)-hexahydrocyclopenta[b]pyrrol-3a(1H)-yl)-5-(piperidin-1-ylmethyl)-5,6-dihydro-1,4,2-dioxazine], the “GBA EC1.5” value is 10 µM and 5 µM; the “GBA Emax” value was 253% and 204%.
For `Nc1ccc(N2CCCC(C3=NOCC(CN4CCCCC4)O3)C2)nc1` (centres unmarked) [compound 687], the “GBA EC1.5” value is 50 µM and the Emax was 110%.
As for `C1CCN(CC2CON=C(C34CCN(CC3)CC4)O2)CC1` (racemic) [compound 642, rac-5-(piperidin-1-ylmethyl)-3-(quinuclidin-4-yl)-5,6-dihydro-1,4,2-dioxazine], the “GBA EC1.5” value stood at 3 µM and the Emax is 282%.
The like results for `CN1CCO[C@@H]2CN(CC3CON=C(C4(C)CCNCC4)O3)C[C@@H]21` (some centres unmarked) [compound 604] were, in that order, 50 µM and 119%.
